Toxic doses and inconclusive results are not listed.
Test system: L1210 leukemia ip in BDF1 mice, survival T/C
Experiment: NCI In Vivo Anticancer Drug Screen. Data for tumor model L1210 Leukemia (intraperitoneal) in B6D2F1 (BDF1) mice
Details: endpoint: mean survival time, higher = longer survival
Method in brief: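 Tumor cells were implanted, animals were treated, and survival was followed. The result divides the treated measurement by the vehicle-control measurement.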

[1] = dose: 100.0 mg/kg/injection, schedule: Q01DX009 (ip), vehicle: saline with Tween-80
[2] = dose: 100.0 mg/kg/injection, schedule: Q04DX003 (ip), vehicle: saline with Tween-80
[3] = dose: 200.0 mg/kg/injection, schedule: Q01DX009 (ip), vehicle: saline with Tween-80
[4] = dose: 200.0 mg/kg/injection, schedule: Q04DX003 (ip), vehicle: saline with Tween-80
[5] = dose: 400.0 mg/kg/injection, schedule: Q01DX009 (ip), vehicle: saline with Tween-80
[6] = dose: 400.0 mg/kg/injection, schedule: Q04DX003 (ip), vehicle: saline with Tween-80
[7] = dose: 50.0 mg/kg/injection, schedule: Q01DX001 (ip), vehicle: other
[8] = dose: 100.0 mg/kg/injection, schedule: Q01DX001 (ip), vehicle: other
[9] = dose: 100.0 mg/kg/injection, schedule: Q01DX001 (ip), vehicle: saline
[10] = dose: 200.0 mg/kg/injection, schedule: Q01DX001 (ip), vehicle: saline
[11] = dose: 400.0 mg/kg/injection, schedule: Q01DX001 (ip), vehicle: saline
[12] = dose: 100.0 mg/kg/injection, schedule: Q04DX003 (ip), vehicle: saline
[13] = dose: 200.0 mg/kg/injection, schedule: Q04DX003 (ip), vehicle: saline
[14] = dose: 400.0 mg/kg/injection, schedule: Q04DX003 (ip), vehicle: saline

For `Clc1ccc(Cl)c(N=NNc2cc(Cl)ccc2Cl)c1`, which T/C [1] is on record?
The T/C was 101 % of control.

And the T/C [2]?
Its T/C is 98 % of control.

What about the T/C [3] of the same molecule?
Its T/C is 101 % of control.

And the T/C [4]?
Its T/C is 101 % of control.

What about the T/C [5] of the same molecule?
The T/C was 103 % of control.

What about the T/C [6] of the same molecule?
The T/C was 96 % of control.

How did the T/C (dose: 6.25 mg/kg/injection, schedule: Q01DX001 (ip), vehicle: other) turn out when `O=NN(CCF)C(=O)NC1CS(=O)(=O)CS(=O)(=O)C1` was run?
The T/C was 164 % of control.

What about the T/C (dose: 12.5 mg/kg/injection, schedule: Q01DX001 (ip), vehicle: other) of the same molecule?
Its T/C is 204 % of control.

And the T/C (dose: 25.0 mg/kg/injection, schedule: Q01DX001 (ip), vehicle: other)?
The T/C was 255 % of control.

What about the T/C [7] of the same molecule?
The T/C was 262 % of control.

What about the T/C (dose: 75.0 mg/kg/injection, schedule: Q01DX001 (ip), vehicle: other) of the same molecule?
The T/C was 296 % of control.

And the T/C [8]?
The T/C was 205 % of control.

What does the source list for `NC(=O)NC1CC1c1ccccc1` (stereo not drawn)?
T/C [9]: 101 % of control; T/C [10]: 95 % of control; T/C [11]: 120 % of control

Which T/C (dose: 75.0 mg/kg/injection, schedule: Q01DX001 (ip), vehicle: carboxymethylcellulose (CMC)) does the source give for `C#C/C=C/CC1OC(C(Br)CC)CC2OC1CC2Br` (stereo not drawn) here?
Its T/C is 94 % of control.

What about the T/C (dose: 150.0 mg/kg/injection, schedule: Q01DX001 (ip), vehicle: carboxymethylcellulose (CMC)) of the same molecule?
Its T/C is 96 % of control.

What about the T/C (dose: 300.0 mg/kg/injection, schedule: Q01DX001 (ip), vehicle: carboxymethylcellulose (CMC)) of the same molecule?
The T/C was 96 % of control.

Which results are given for `CC(CNc1ccc(Cl)cc1)(CNc1ccc(Cl)cc1)[N+](=O)[O-]`?
T/C [12]: 92 % of control; T/C [13]: 88 % of control; T/C [14]: 92 % of control

For `CCCCCCC(/C=N\Nc1nnc(N/N=C\C(=C\c2ccccc2)CCCCCC)c2ccccc12)=C/c1ccccc1`, which T/C [7] is on record?
The T/C was 109 % of control.

What about the T/C [8] of the same molecule?
Its T/C is 103 % of control.

What about the T/C (dose: 200.0 mg/kg/injection, schedule: Q01DX001 (ip), vehicle: other) of the same molecule?
Its T/C is 111 % of control.

And the T/C (dose: 400.0 mg/kg/injection, schedule: Q01DX001 (ip), vehicle: other)?
Its T/C is 105 % of control.

With `CCOC(=O)Nc1ccc(Cl)cc1Cl` as the molecule, how does the T/C [2] read?
The T/C was 97 % of control.

What about the T/C [4] of the same molecule?
Its T/C is 105 % of control.

And the T/C [6]?
The T/C was 87 % of control.

How did the T/C [9] turn out when `CC(=O)Nc1ccc(/C=N/Nc2c3ccccc3nc3ccccc23)cc1` was run?
The T/C was 108 % of control.

What does the source list for `O=[N+]([O-])Nc1ccc(C(c2ccc(N[N+](=O)[O-])cc2)c2ccc([N+](=O)[O-])cc2)cc1`?
T/C (dose: 100.0 mg/kg/injection, schedule: Q01DX005 (ip), vehicle: saline with Tween-80): 89 % of control; T/C [1]: 100 % of control; T/C (dose: 200.0 mg/kg/injection, schedule: Q01DX005 (ip), vehicle: saline with Tween-80): 100 % of control; T/C [3]: 92 % of control; T/C (dose: 400.0 mg/kg/injection, schedule: Q01DX005 (ip), vehicle: saline with Tween-80): 89 % of control; T/C [5]: 94 % of control

`C[N+]1(CCC[N+]2(C)CC3CCCCC3C2)CCOCC1` (stereo not drawn) was tested. Which T/C [12] did it give?
Its T/C is 99 % of control.

What about the T/C [13] of the same molecule?
Its T/C is 96 % of control.

What about the T/C [14] of the same molecule?
Its T/C is 105 % of control.

What does the source list for `C=C(C)CC1(CC2SCCCS2)SCCCS1`?
T/C (dose: 25.0 mg/kg/injection, schedule: Q04DX002 (ip), vehicle: saline with Tween-80): 98 % of control; T/C (dose: 50.0 mg/kg/injection, schedule: Q04DX002 (ip), vehicle: saline with Tween-80): 106 % of control; T/C (dose: 100.0 mg/kg/injection, schedule: Q04DX002 (ip), vehicle: saline with Tween-80): 88 % of control; T/C (dose: 200.0 mg/kg/injection, schedule: Q04DX002 (ip), vehicle: saline with Tween-80): 98 % of control

For `C=CC[N+](C)([O-])c1ccc(C(=O)OC)cc1` (stereo not drawn), which T/C [9] is on record?
The T/C was 107 % of control.

And the T/C [10]?
Its T/C is 102 % of control.

What about the T/C [11] of the same molecule?
Its T/C is 96 % of control.

With `Nc1ccc(C(=O)O)c(Cl)c1` as the molecule, how does the T/C (dose: 100.0 mg/kg/injection, schedule: Q04DX003 (ip), vehicle: Klucel (hydroxypropylcellulose) (HPC)) read?
The T/C was 100 % of control.

What about the T/C (dose: 200.0 mg/kg/injection, schedule: Q04DX003 (ip), vehicle: Klucel (hydroxypropylcellulose) (HPC)) of the same molecule?
The T/C was 99 % of control.

And the T/C (dose: 400.0 mg/kg/injection, schedule: Q04DX003 (ip), vehicle: Klucel (hydroxypropylcellulose) (HPC))?
Its T/C is 97 % of control.

From PubChem BioAssay AID248 (DTP/NCI, 2004)
